According to PubChem BioAssay (NCI):
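Protocol summary: plate cells (96-well), add compound at 5 concentrations, incubate 48 h, interpolate endpoints linearly. Abbreviation: GI50, concentration required for 50% inhibition of growth. The concentration for full growth arrest is given as TGI.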

Key:
Assay in all cases: NCI tumour cell line growth inhibition, 48 h
786-0 renal = tested on: 786-0 renal
A498 renal = tested on: A498 renal
A549 NSCLC = tested on: A549 NSCLC
ACHN renal = tested on: ACHN renal
BT-549 breast = tested on: BT-549 breast
CAKI-1 renal = tested on: CAKI-1 renal
CCRF-CEM leukemia = tested on: CCRF-CEM leukemia
COLO 205 colon = tested on: COLO 205 colon
DU-145 prostate = tested on: DU-145 prostate
EKVX NSCLC = tested on: EKVX NSCLC
HCC-2998 colon = tested on: HCC-2998 colon
HCT-116 colon = tested on: HCT-116 colon
HCT-15 colon = tested on: HCT-15 colon
HL-60(TB) leukemia = tested on: HL-60(TB) leukemia
HOP-62 NSCLC = tested on: HOP-62 NSCLC
HOP-92 NSCLC = tested on: HOP-92 NSCLC
HS 578T breast = tested on: HS 578T breast
HT29 colon = tested on: HT29 colon
IGROV1 ovarian = tested on: IGROV1 ovarian
K-562 leukemia = tested on: K-562 leukemia
KM12 colon = tested on: KM12 colon
LOX IMVI melanoma = tested on: LOX IMVI melanoma
M14 melanoma = tested on: M14 melanoma
MALME-3M melanoma = tested on: MALME-3M melanoma
MCF7 breast = tested on: MCF7 breast
MDA-MB-231 breast = tested on: MDA-MB-231 breast
MDA-MB-435 = tested on: MDA-MB-435
MOLT-4 leukemia = tested on: MOLT-4 leukemia
NCI-H226 lung = tested on: NCI-H226 lung
NCI-H23 lung = tested on: NCI-H23 lung
NCI-H460 lung = tested on: NCI-H460 lung
NCI-H522 lung = tested on: NCI-H522 lung
NCI/ADR-RES ovarian = tested on: NCI/ADR-RES ovarian
OVCAR-3 ovarian = tested on: OVCAR-3 ovarian
OVCAR-4 ovarian = tested on: OVCAR-4 ovarian
OVCAR-5 ovarian = tested on: OVCAR-5 ovarian
OVCAR-8 ovarian = tested on: OVCAR-8 ovarian
PC-3 prostate = tested on: PC-3 prostate
RPMI-8226 leukemia = tested on: RPMI-8226 leukemia
RXF 393 renal = tested on: RXF 393 renal
SF-268 CNS = tested on: SF-268 CNS
SF-295 CNS = tested on: SF-295 CNS
SF-539 CNS = tested on: SF-539 CNS
SK-MEL-2 melanoma = tested on: SK-MEL-2 melanoma
SK-MEL-28 melanoma = tested on: SK-MEL-28 melanoma
SK-MEL-5 melanoma = tested on: SK-MEL-5 melanoma
SK-OV-3 ovarian = tested on: SK-OV-3 ovarian
SN12C renal = tested on: SN12C renal
SNB-19 CNS = tested on: SNB-19 CNS
SNB-75 CNS = tested on: SNB-75 CNS
SW-620 colon = tested on: SW-620 colon
T-47D breast = tested on: T-47D breast
TK-10 renal = tested on: TK-10 renal
U251 CNS = tested on: U251 CNS
UACC-257 melanoma = tested on: UACC-257 melanoma
UACC-62 melanoma = tested on: UACC-62 melanoma
UO-31 renal = tested on: UO-31 renal

C=C1C(=O)c2sccc2C(c2ccc(OC)c(OC)c2)C1COC(C)=O (configuration not stated)
GI50 (786-0 renal): 297 nM
TGI (786-0 renal): 3990 nM
GI50 (A498 renal): 2130 nM
TGI (A498 renal): 7200 nM
GI50 (A549 NSCLC): 3250 nM
TGI (A549 NSCLC): 11500 nM
GI50 (ACHN renal): 1860 nM
GI50 (BT-549 breast): 2110 nM
TGI (BT-549 breast): 4790 nM
GI50 (CAKI-1 renal): 2100 nM
TGI (CAKI-1 renal): 6570 nM
GI50 (CCRF-CEM leukemia): 66.1 nM
TGI (CCRF-CEM leukemia): 777 nM
GI50 (COLO 205 colon): 2250 nM
TGI (COLO 205 colon): 4890 nM
GI50 (DU-145 prostate): 761 nM
TGI (DU-145 prostate): 2040 nM
GI50 (EKVX NSCLC): 8370 nM
TGI (EKVX NSCLC): 21300 nM
GI50 (HCC-2998 colon): 2890 nM
TGI (HCC-2998 colon): 7560 nM
GI50 (HCT-116 colon): 1620 nM
TGI (HCT-116 colon): 10300 nM
GI50 (HCT-15 colon): 2030 nM
GI50 (HL-60(TB) leukemia): 2980 nM
TGI (HL-60(TB) leukemia): > 100000 nM
GI50 (HOP-62 NSCLC): 6540 nM
TGI (HOP-62 NSCLC): 15700 nM
GI50 (HOP-92 NSCLC): 2460 nM
TGI (HOP-92 NSCLC): 6910 nM
GI50 (HS 578T breast): 2540 nM
TGI (HS 578T breast): 8400 nM
GI50 (HT29 colon): 1360 nM
TGI (HT29 colon): 4010 nM
GI50 (IGROV1 ovarian): 2270 nM
TGI (IGROV1 ovarian): 5670 nM
GI50 (K-562 leukemia): 200 nM
TGI (K-562 leukemia): > 29700 nM
GI50 (KM12 colon): 1210 nM
TGI (KM12 colon): > 25700 nM
GI50 (LOX IMVI melanoma): 173 nM
TGI (M14 melanoma): 3100 nM
GI50 (MALME-3M melanoma): 1500 nM
TGI (MALME-3M melanoma): 6410 nM
GI50 (MCF7 breast): 953 nM
TGI (MCF7 breast): 2980 nM
GI50 (MDA-MB-231 breast): 551 nM
TGI (MDA-MB-231 breast): 2480 nM
GI50 (MDA-MB-435): 1920 nM
TGI (MDA-MB-435): 6180 nM
GI50 (MOLT-4 leukemia): 219 nM
TGI (MOLT-4 leukemia): 733 nM
GI50 (NCI-H226 lung): 2930 nM
TGI (NCI-H226 lung): 8560 nM
GI50 (NCI-H23 lung): 1540 nM
TGI (NCI-H23 lung): 4940 nM
GI50 (NCI-H460 lung): 3720 nM
TGI (NCI-H460 lung): 14000 nM
GI50 (NCI-H522 lung): 1130 nM
TGI (NCI-H522 lung): 4040 nM
GI50 (NCI/ADR-RES ovarian): 2360 nM
GI50 (OVCAR-3 ovarian): 1670 nM
TGI (OVCAR-3 ovarian): 5790 nM
GI50 (OVCAR-4 ovarian): 4810 nM
TGI (OVCAR-4 ovarian): 19500 nM
GI50 (OVCAR-5 ovarian): 2420 nM
TGI (OVCAR-5 ovarian): 9290 nM
GI50 (OVCAR-8 ovarian): 2740 nM
TGI (OVCAR-8 ovarian): 8140 nM
GI50 (PC-3 prostate): 1300 nM
TGI (PC-3 prostate): 2810 nM
TGI (RPMI-8226 leukemia): 36.6 nM
GI50 (RXF 393 renal): 595 nM
TGI (RXF 393 renal): 1990 nM
GI50 (SF-268 CNS): 3440 nM
TGI (SF-268 CNS): 12900 nM
GI50 (SF-295 CNS): 4430 nM
TGI (SF-295 CNS): 16500 nM
GI50 (SF-539 CNS): 1610 nM
TGI (SF-539 CNS): 3270 nM
GI50 (SK-MEL-2 melanoma): 10800 nM
TGI (SK-MEL-2 melanoma): 23000 nM
GI50 (SK-MEL-28 melanoma): 2150 nM
TGI (SK-MEL-28 melanoma): 4420 nM
GI50 (SK-MEL-5 melanoma): 1900 nM
TGI (SK-MEL-5 melanoma): 4740 nM
GI50 (SK-OV-3 ovarian): 5460 nM
TGI (SK-OV-3 ovarian): 20000 nM
GI50 (SN12C renal): 1330 nM
TGI (SN12C renal): 3240 nM
GI50 (SNB-19 CNS): 8470 nM
TGI (SNB-19 CNS): 32700 nM
GI50 (SNB-75 CNS): 8390 nM
TGI (SNB-75 CNS): 28800 nM
GI50 (SW-620 colon): 656 nM
TGI (SW-620 colon): 2510 nM
GI50 (T-47D breast): 2240 nM
TGI (T-47D breast): 5770 nM
GI50 (TK-10 renal): 1340 nM
TGI (TK-10 renal): 4850 nM
GI50 (U251 CNS): 1620 nM
GI50 (UACC-257 melanoma): 1930 nM
TGI (UACC-257 melanoma): 5770 nM
GI50 (UACC-62 melanoma): 1430 nM
TGI (UACC-62 melanoma): 3170 nM
GI50 (UO-31 renal): 1810 nM
TGI (UO-31 renal): 3390 nM
